Where two headings read alike, the source gives them in different places.
Columns and labels:
prion protein (PRP^SC) = prion protein (PRP^SC) (Homo sapiens, UniProt P04156)
BSA protein = BSA protein (Bos taurus, UniProt P02769)
[1] = test system: ileal fluid dependent organism (IFDO)

Chain of BSA protein (P02769 25-607 limits assumed): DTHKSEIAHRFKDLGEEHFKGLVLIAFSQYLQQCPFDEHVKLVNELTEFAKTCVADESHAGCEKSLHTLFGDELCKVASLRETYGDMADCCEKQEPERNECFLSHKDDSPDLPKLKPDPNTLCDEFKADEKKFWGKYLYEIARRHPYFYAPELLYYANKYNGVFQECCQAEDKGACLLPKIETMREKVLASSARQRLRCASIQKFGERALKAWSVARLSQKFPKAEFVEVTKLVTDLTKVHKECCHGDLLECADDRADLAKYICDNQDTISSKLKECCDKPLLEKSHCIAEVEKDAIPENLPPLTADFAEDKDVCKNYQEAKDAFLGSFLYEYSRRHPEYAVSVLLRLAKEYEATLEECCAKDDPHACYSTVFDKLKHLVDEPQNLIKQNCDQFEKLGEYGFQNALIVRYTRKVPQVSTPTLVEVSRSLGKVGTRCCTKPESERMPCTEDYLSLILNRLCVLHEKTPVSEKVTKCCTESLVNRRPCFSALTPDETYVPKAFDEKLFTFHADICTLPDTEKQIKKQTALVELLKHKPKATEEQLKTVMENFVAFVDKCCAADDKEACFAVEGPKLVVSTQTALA

OO [Vapor Hydrogen Peroxide, hydrogen peroxide]
PRP^SC Detected (prion protein (PRP^SC); 25° C., 1.7 mg/L, 3 hours exposure, atmospheric pressure): No
PRP^SC Detected (prion protein (PRP^SC); 30° C., 2.2 mg/L, vacuum conditions, six pulses of vapor): No
PRP^SC Detected (prion protein (PRP^SC); 50° C., 7.0 mg/L, vacuum conditions, three pulses of vapor): No
destruction of the harmful form of the prion protein (prion protein (PRP^SC); summary of Table 7, no precleaning step): effective at destruction of the harmful form of the prion protein
breakdown of protein (gel electrophoresis) (BSA protein): effectively destroys proteins
log reduction in IFDO [1]: six
number of colonies developed on the vacuum treated samples [1]: less than 1 log
deactivating the prion model (IFDO): vacuum pulses versus atmospheric conditions ([1]; FIG. 9, atmospheric 1.5 mg/l 30° C. or 3 mg/l 40° C., 15 minutes): more effective
log reduction in IFDO (IFDO organisms): six
number of colonies developed from IFDO remaining on the vacuum treated samples (IFDO organisms): less than 1 log
